# Experimental data published in patent US20060167083A1, “Therapeutic methods and compositions involving isoflav-3-ene and isoflavan structures” (priority 2002, published 2006).
# Experiments:
# [1] = test system: E selectin; assay: E selectin expression assay on endothelial cells (FACS); type: cell-based, human; details: 10 μg/ml 18 hours prior to stimulation; TNF and IL-1
# Procedure: E selectin and VCAM-1 assays: HUVEC were plated at 5×10^5 cells per 6 well dish. Cells were treated with DMSO vehicle or De (10 μg/ml final) for 18 hours prior to TNFα (1 ng/ml) addition. After 4 or 18 hours, cells were washed with PBS and incubated with antibodies against E selectin (Mab49-1B11) or VCAM-1 (Nab51-10C9) for 30 min. Goat F(ab′)2 fragment mouse-IgG(H+L)-FITC antibody (Immunotech, Marseille, France) was then added for 30 min. The cells were then trypsinised and FACS analysed on a Coulter Epics® XL-MCL (Beckman Coulter). Results are expressed as arbitrary units relating to the mean intensity of FITC fluorescence.
# [2] = test system: prostate cancer line DU145; assay: Anti-proliferative effect on DU145; type: cell-based; details: Homo sapiens, DU-145
# [3] = test system: Human umbilical vein endothelial cells (HUVEC); assay: Endothelial cell proliferation assay (MTT); type: cell-based
# Procedure: Cells: Human umbilical vein endothelial cells (HUVEC) were prepared and grown as previously described^30. The cells were used between passages 2 and 6 for all experiments. The human prostatic adenocarcinoma cell line, LNCaP was obtained from American Tissue Type Collection and maintained according to the instructions of the supplier.
# Proliferation assay: HUVEC were seeded at 3×10^3 cells per gelatin-coated microtitre well and grown in complete medium for 3 days. Dehydroequol (De) was added 3 hours after plating. Proliferation was measured using the MTT assay (Promega, Wis., USA) and is given as the rate of proliferation over the 3 days±SEM of quadruplicate determinations for each group. Proliferation of LNCaP cells was determined using the MTT assay. Cells were seeded at 2.5×10^3 cells per microtitre well. De was added 4 days after plating and assayed after a further 5 days of growth. Cell viability is expressed as a percentage of control untreated cells.
# [4] = molecular target: T1, human topo I (Homo sapiens, UniProt P11387); assay: Topo I-mediated plasmid relaxation assay; type: biochemical; details: concentrations up to 100 μg/ml, absence of ATP
# T1 construct: purchased Topogen (Columbus, Ohio)
# T1 sequence (P11387 1-765): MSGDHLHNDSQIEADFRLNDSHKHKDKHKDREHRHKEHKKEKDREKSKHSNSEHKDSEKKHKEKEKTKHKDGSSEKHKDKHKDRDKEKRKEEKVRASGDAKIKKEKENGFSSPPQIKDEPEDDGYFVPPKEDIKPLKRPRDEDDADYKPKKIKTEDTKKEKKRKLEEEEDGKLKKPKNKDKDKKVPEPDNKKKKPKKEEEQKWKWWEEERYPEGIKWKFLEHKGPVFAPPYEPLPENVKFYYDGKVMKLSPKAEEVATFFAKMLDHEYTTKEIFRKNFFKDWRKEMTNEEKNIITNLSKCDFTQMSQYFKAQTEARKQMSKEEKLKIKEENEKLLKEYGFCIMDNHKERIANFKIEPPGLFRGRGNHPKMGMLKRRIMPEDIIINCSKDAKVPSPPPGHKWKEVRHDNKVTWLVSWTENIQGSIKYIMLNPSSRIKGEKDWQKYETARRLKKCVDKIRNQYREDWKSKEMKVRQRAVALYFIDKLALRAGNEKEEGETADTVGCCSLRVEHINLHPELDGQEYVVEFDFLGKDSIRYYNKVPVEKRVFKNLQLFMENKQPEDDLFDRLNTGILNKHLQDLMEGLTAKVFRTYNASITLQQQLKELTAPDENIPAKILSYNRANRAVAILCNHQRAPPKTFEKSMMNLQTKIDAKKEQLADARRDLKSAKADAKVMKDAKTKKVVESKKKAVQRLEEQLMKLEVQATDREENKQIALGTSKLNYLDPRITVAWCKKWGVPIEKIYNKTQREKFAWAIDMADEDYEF
# Procedure: Topo I activity was determined by converting supercoiled pUC8 DNA (SC) into its relaxed from (REL).
# For the determination of topoisomerase (topo) I catalytic activity, pUC8 DNA was used as the substrate in a reaction volume of 20 μl containing the following: 10 mM Tris-HCl, pH 7.9, 1 mM EDTA, 150 mM NaCl, 0.1% BSA, 0.1 mM spermidine, 5% glycerol, and 2 units of purified human topo I. The inhibitor, when applicable, was added as indicated, and the reaction was initiated by the addition of the enzyme. Reactions were carried out at 37° C. for 30 min. Gel electrophoresis was performed at 4 V/cm for 5 h in Tris-borate-EDTA buffer. For the quantitative determination of topo I activity, photographic negatives were scanned. The area representing supercoiled DNA, migrating as a single band at the bottom of the gel, was determined. The concentrations of the inhibitor that prevented 50% of the supercoiled DNA from being converted into relaxed DNA (IC50 values) were determined by averaging the data from at least three experiments.
# [5] = test system: colon cancer line CaCo-2; assay: Anti-proliferative effect on CaCo-2; type: cell-based; details: Homo sapiens
# [6] = test system: Human umbilical vein endothelial cells (HUVEC); assay: Endothelial cell migration (wound) assay; type: cell-based
# Procedure: Migration assay: HUVEC were plated at 5×10^5 cells per gelatin-coated 6 well dish and grown to confluence over 48 hours. Wounds were made in the monolayer, cells washed 3 times and fresh complete media with or without De (10 μg/ml final concentration) added. Migration was viewed over the following 18-72 hours.
compound,measurement,setting,value
"Oc1ccc(C2=Cc3ccc(O)cc3OC2)cc1 [Dehydroequol, 4′,7-dihydroxyisoflav-3-ene]",induction of E selectin on the endothelium,[1],inhibits the induction
same,IC50,[2],3 µg/mL
same,cell death in proliferation assays,[3],did not cause cell death
same,inhibition at 10 µg/mL,"[3]; Homo sapiens, HUVEC, 10 μg/ml, five experiments",91%
same,inhibition of topo I-catalysed relaxation of pUC8 DNA,[4],did not inhibit
same,IC50,[5],1 µg/mL
same,inhibition of EC migration,[6]; 10 μg/ml,inhibits
same,viability of EC not in the vicinity of the wound,[6]; in the presence of De for 72 hours,remained viable
